# Values quoted from earlier work as cited in US6727243B1, “Compositions comprising cefuroxime axetil” (Biochemie Gesellschaft m.b.H., priority 1998, dated 2004).
# Conditions: oral administration; after consumption of food versus fastened state
smiles,measurement,value
"CO/N=C(\C(=O)N[C@@H]1C(=O)N2C(C(=O)OC(C)OC(C)=O)=C(COC(N)=O)CS[C@H]12)c1ccco1 (stereo partly shown) [cefuroxime axetil, 1-acetoxyethyl ester of cefuroxime]",food effect on bioavailability,exhibit a food effect
